Experimental data published in PubChem BioAssay AID493136 (Sanford-Burnham Center for Chemical Genomics, 2011).
pIC50: −log10 of the molar value. The source made the active and inactive calls. The rule behind the calls is not given here.

What follows are compounds tested against Alkaline phosphatase, germ cell type (Homo sapiens) (UniProt P10696) (assay: PLAP-like enzyme inhibition by analogs, SAR follow-up, selectivity assay for mouse IAP inhibitor project, biochemical, human placental-like ALPPL2 isozyme (AID 493136)). Conditions: purified placental-like alkaline phosphatase, phosphatase activity.
Alkaline phosphatase, germ cell type (Homo sapiens), sequence (P10696 whole entry, looked up): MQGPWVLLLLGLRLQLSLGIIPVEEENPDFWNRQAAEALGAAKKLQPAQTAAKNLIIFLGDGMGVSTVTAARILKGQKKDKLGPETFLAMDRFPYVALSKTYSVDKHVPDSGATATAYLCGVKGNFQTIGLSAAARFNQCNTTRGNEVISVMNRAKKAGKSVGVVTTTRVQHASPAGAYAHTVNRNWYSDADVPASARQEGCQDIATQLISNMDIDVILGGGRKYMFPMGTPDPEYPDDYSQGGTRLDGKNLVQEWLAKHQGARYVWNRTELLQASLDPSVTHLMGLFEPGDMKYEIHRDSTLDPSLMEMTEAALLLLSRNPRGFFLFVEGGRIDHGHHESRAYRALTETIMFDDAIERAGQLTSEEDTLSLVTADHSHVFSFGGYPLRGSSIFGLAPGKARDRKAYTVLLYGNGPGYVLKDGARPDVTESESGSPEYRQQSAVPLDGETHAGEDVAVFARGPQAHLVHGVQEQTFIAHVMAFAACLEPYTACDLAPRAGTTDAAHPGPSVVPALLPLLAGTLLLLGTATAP

Row | Compound | IC50 | pIC50
1 | NS(=O)(=O)c1ccc(NC(=S)NCCC(c2ccccc2)c2ccccc2)cc1 | > 100 µM (inactive) | –
2 | Cc1ccc(NC(=S)NCCC(c2ccccc2)c2ccccc2)cc1 | > 100 µM (inactive) | –
3 | CCn1c(SCC(=O)c2ccc(O)c(O)c2)nnc1-c1ccccc1OC | – | 4.61
4 | COc1cccc(NC(=S)NCCC(c2ccccc2)c2ccccc2)c1 | > 100 µM (inactive) | –
5 | CC1(c2ccccc2)CC(C)(C)N(C(=S)Nc2ccccc2)c2ccccc21 (stereo not drawn) | > 100 µM (inactive) | –
6 | CCn1cc(CN2CCC(C(=O)Nc3cccc(-c4cccc(OC)c4)c3)CC2)c(C)n1 | > 100 µM (inactive) | –
7 | O=C(Nc1cccc(-c2cccc(Cl)c2)c1)C1CCN(Cc2ccc(CO)o2)CC1 | > 100 µM (inactive) | –
8 | C=CCn1cc(CN2CCC(C(=O)Nc3cccc(-c4cccc(F)c4)c3)CC2)c(C)n1 | > 100 µM (inactive) | –
9 | O=S(=O)(Nc1ncccn1)c1ccc(NC(=S)NCCC(c2ccccc2)c2ccccc2)cc1 | > 100 µM (inactive) | –
10 | COC(=O)c1cc(NC(=S)NCCC(c2ccccc2)c2ccccc2)cc(C(=O)OC)c1 | > 100 µM (inactive) | –
11 | Cc1cc(NC(=O)CCNS(=O)(=O)c2ccc3[nH]c(=O)oc3c2)ccc1Br | > 100 µM (inactive) | –
12 | Cn1cc(CN2CCC(C(=O)Nc3cccc(-c4cccc(Cl)c4)c3)CC2)cn1 | > 100 µM (inactive) | –
13 | O=C(Nc1cccc(-c2cccc(Cl)c2)c1)C1CCN(C2CCC2)CC1 | > 100 µM (inactive) | –
14 | Oc1ccc(-c2csc(Nc3cccc4ccccc34)n2)cc1O | > 100 µM (inactive) | –
15 | COc1cccc(-c2cccc(NC(=O)C3CCN(Cc4ccc(CO)o4)CC3)c2)c1 | > 100 µM (inactive) | –
16 | S=C(NCCC(c1ccccc1)c1ccccc1)Nc1ccc(Cl)cc1 | > 100 µM (inactive) | –

Row | Compound | IC50 | pIC50
17 | Cc1ccc(C)c(NC(=S)NCCC(c2ccccc2)c2ccccc2)c1 | > 100 µM (inactive) | –
18 | CCn1cc(CN2CCC(C(=O)Nc3cccc(-c4cccc(Cl)c4)c3)CC2)cn1 | > 100 µM (inactive) | –
19 | Cc1nn(C(C)C)c(C)c1CN1CCC(C(=O)Nc2cccc(-c3cccc(F)c3)c2)CC1 | > 100 µM (inactive) | –
20 | CCn1nc(C)c(CN2CCC(C(=O)Nc3cccc(-c4cccc(F)c4)c3)CC2)c1C | > 100 µM (inactive) | –
21 | O=C(Nc1cccc(-c2cccc(F)c2)c1)C1CCN(Cc2ccc(CO)o2)CC1 | > 100 µM (inactive) | –
22 | Cc1ccc(NC(=S)NCCC(c2ccccc2)c2ccccc2)cc1C | > 100 µM (inactive) | –
23 | Cc1ccc(NC(=O)CCNS(=O)(=O)c2ccc3[nH]c(=O)oc3c2)cc1C | > 100 µM (inactive) | –
24 | C=CCn1cc(CN2CCC(C(=O)Nc3cccc(-c4cccc(Cl)c4)c3)CC2)c(C)n1 | > 100 µM (inactive) | –
25 | COCc1ccc(CN2CCC(C(=O)Nc3cccc(-c4cccc(Cl)c4)c3)CC2)o1 | > 100 µM (inactive) | –
26 | COc1ccc(Cl)cc1Nc1nc(-c2ccc(O)c(O)c2)cs1 | > 100 µM (inactive) | –
27 | CCOC(=O)c1ccc(NC(=S)NCCC(c2ccccc2)c2ccccc2)cc1 | > 100 µM (inactive) | –
28 | FC(F)(F)c1cccc(NC(=S)NCCC(c2ccccc2)c2ccccc2)c1 | > 100 µM (inactive) | –
29 | COc1cc(NC(=S)NCCC(c2ccccc2)c2ccccc2)cc(OC)c1 | > 100 µM (inactive) | –
30 | CCn1cc(CN2CCC(C(=O)Nc3cccc(-c4cccc(OC)c4)c3)CC2)cn1 | > 100 µM (inactive) | –
31 | Cc1c(CN2CCC(C(=O)Nc3cccc(-c4cccc(Cl)c4)c3)CC2)cnn1C | > 100 µM (inactive) | –
32 | CCCn1ncc(CN2CCC(C(=O)Nc3cccc(-c4cccc(F)c4)c3)CC2)c1C | > 100 µM (inactive) | –

The remaining lines, values ahead:

Row | IC50 | pIC50 | Compound
33 | > 100 µM (inactive) | – | Fc1ccccc1NC(=S)NCCC(c1ccccc1)c1ccccc1
34 | > 100 µM (inactive) | – | COc1ccc(NC(=S)NCCC(c2ccccc2)c2ccccc2)cc1
35 | > 100 µM (inactive) | – | S=C(NCCC(c1ccccc1)c1ccccc1)Nc1ccc(Cl)cc1Cl
36 | > 100 µM (inactive) | – | O=C(CN1C(=O)/C(=C/c2ccco2)SC1=S)Nc1cccc(C(=O)O)c1
37 | > 100 µM (inactive) | – | CCN1CCN(S(=O)(=O)c2ccc3[nH]c(=O)oc3c2)CC1
38 | > 100 µM (inactive) | – | CN(C)S(=O)(=O)c1cccc(NC(=S)NCCC(c2ccccc2)c2ccccc2)c1
39 | > 100 µM (inactive) | – | Cc1cc(=O)oc2cc(NC(=S)NCCC(c3ccccc3)c3ccccc3)ccc12
40 | > 100 µM (inactive) | – | Cc1c(Cl)cccc1NC(=S)NCCC(c1ccccc1)c1ccccc1
41 | > 100 µM (inactive) | – | CC(C)n1cc(CN2CCC(C(=O)Nc3cccc(-c4cccc(F)c4)c3)CC2)cn1
42 | > 100 µM (inactive) | – | COc1ccc(Cl)cc1NC(=S)NCCC(c1ccccc1)c1ccccc1
43 | > 100 µM (inactive) | – | CN1CCC(=NNC(=O)c2cc(O)c(O)c(O)c2)CC1
44 | > 100 µM (inactive) | – | O=C(CN1C(=O)/C(=C/c2ccco2)SC1=S)Nc1ccc(C(=O)O)cc1
45 | > 100 µM (inactive) | – | CCn1ncc(CN2CCC(C(=O)Nc3cccc(-c4cccc(F)c4)c3)CC2)c1C
46 | > 100 µM (inactive) | – | CC(C)n1cc(CN2CCC(C(=O)Nc3cccc(-c4cccc(Cl)c4)c3)CC2)cn1
47 | > 100 µM (inactive) | – | S=C(NCCC(c1ccccc1)c1ccccc1)Nc1ccccc1
48 | > 100 µM (inactive) | – | Cc1nn(C)c(Cl)c1CN1CCC(C(=O)Nc2cccc(-c3cccc(F)c3)c2)CC1
49 | > 100 µM (inactive) | – | Cc1cccc(NC(=S)NCCC(c2ccccc2)c2ccccc2)c1C
50 | > 100 µM (inactive) | – | CCn1cc(CN2CCC(C(=O)Nc3cccc(-c4cccc(F)c4)c3)CC2)cn1

Row | IC50 | pIC50 | Compound
51 | > 100 µM (inactive) | – | O=C(CN1C(=O)/C(=C\c2ccco2)SC1=S)Nc1ccccc1C(=O)O
52 | > 100 µM (inactive) | – | CC(C)N1CCC(=NNC(=O)c2cc(O)c(O)c(O)c2)CC1
53 | > 100 µM (inactive) | – | COc1cccc(-c2cccc(NC(=O)C3CCN(Cc4ccc(C)o4)CC3)c2)c1
54 | > 100 µM (inactive) | – | Cc1c(Cl)cccc1Nc1nc(-c2ccc(O)c(O)c2)cs1
55 | > 100 µM (inactive) | – | CC(C)c1ccccc1NC(=S)NCCC(c1ccccc1)c1ccccc1
56 | > 100 µM (inactive) | – | Fc1ccc(NC(=S)NCCC(c2ccccc2)c2ccccc2)cc1Cl
57 | > 100 µM (inactive) | – | O=[N+]([O-])c1ccc(NC(=S)NCCC(c2ccccc2)c2ccccc2)cc1
58 | > 100 µM (inactive) | – | S=C(NCCC(c1ccccc1)c1ccccc1)Nc1cccc(Cl)c1
59 | > 100 µM (inactive) | – | COc1cc([N+](=O)[O-])ccc1NC(=S)NCCC(c1ccccc1)c1ccccc1
60 | > 100 µM (inactive) | – | S=C(NCCC(c1ccccc1)c1ccccc1)Nc1ccc(Nc2ccccc2)cc1
61 | > 100 µM (inactive) | – | CCc1ccccc1Nc1nc(-c2ccc(O)c(O)c2)cs1
62 | > 100 µM (inactive) | – | Cc1ccc(CN2CCC(C(=O)Nc3cccc(-c4cccc(F)c4)c3)CC2)o1
63 | > 100 µM (inactive) | – | COc1ccc(C(=O)CSc2n[nH]c(-c3ccccc3)n2)cc1OC
64 | > 100 µM (inactive) | – | CCn1nc(C)c(CN2CCC(C(=O)Nc3cccc(-c4cccc(Cl)c4)c3)CC2)c1C
65 | > 100 µM (inactive) | – | S=C(NCCC(c1ccccc1)c1ccccc1)Nc1ccc(Cl)c(Cl)c1
66 | > 100 µM (inactive) | – | Cn1cc(CN2CCC(C(=O)Nc3cccc(-c4cccc(F)c4)c3)CC2)cn1
67 | > 100 µM (inactive) | – | Cc1cc(C)cc(NC(=S)NCCC(c2ccccc2)c2ccccc2)c1
68 | > 100 µM (inactive) | – | Cc1cc(Cl)ccc1NC(=S)NCCC(c1ccccc1)c1ccccc1
